Assay results published in US10231954B2, “Neurodegenerative therapies” (LYTIX BIOPHARMA AS, priority 2014, dated 2019).

Experiments:
Format in all cases: biochemical
AMPK = assay: Kinase profiling AMPK; settings: 100 micromolar inhibitor concentration; 100 is no change
From the text: (§1) Any value less that 25 is considered to be highly significant inhibition.

MARK4 = target: T1, MARK4 (Homo sapiens, UniProt Q96L34); assay: Kinase profiling MARK4; settings: 100 micromolar inhibitor concentration, 100 is no change; for remaining activity at 100 µM: read-out: residual kinase activity, MARK4
T1 sequence (Q96L34 1-752): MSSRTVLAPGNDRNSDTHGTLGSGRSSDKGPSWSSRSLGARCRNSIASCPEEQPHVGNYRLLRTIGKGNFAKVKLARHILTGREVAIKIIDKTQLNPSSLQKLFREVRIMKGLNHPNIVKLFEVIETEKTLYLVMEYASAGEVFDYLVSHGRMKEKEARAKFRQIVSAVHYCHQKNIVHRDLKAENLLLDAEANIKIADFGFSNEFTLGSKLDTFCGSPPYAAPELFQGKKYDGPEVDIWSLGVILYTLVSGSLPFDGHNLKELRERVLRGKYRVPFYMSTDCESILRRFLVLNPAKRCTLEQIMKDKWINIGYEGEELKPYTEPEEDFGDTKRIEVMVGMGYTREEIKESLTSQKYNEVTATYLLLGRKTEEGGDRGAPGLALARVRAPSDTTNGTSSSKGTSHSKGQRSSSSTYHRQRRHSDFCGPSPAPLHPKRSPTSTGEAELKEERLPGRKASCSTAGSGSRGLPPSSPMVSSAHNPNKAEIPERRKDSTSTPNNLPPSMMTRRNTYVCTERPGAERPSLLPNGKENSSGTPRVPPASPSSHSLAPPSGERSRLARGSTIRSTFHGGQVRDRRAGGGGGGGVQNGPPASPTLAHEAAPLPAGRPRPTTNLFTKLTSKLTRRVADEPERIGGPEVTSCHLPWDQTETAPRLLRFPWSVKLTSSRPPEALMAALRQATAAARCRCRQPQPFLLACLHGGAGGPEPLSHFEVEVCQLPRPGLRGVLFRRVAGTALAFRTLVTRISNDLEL
From the text: as §1

NEK2a = target: T2, NEK2a (Homo sapiens, UniProt P51955); assay: Kinase profiling NEK2a; settings: 100 micromolar inhibitor concentration, 100 is no change; for remaining activity at 100 µM: read-out: residual kinase activity, NEK2a
T2 sequence (P51955 1-445): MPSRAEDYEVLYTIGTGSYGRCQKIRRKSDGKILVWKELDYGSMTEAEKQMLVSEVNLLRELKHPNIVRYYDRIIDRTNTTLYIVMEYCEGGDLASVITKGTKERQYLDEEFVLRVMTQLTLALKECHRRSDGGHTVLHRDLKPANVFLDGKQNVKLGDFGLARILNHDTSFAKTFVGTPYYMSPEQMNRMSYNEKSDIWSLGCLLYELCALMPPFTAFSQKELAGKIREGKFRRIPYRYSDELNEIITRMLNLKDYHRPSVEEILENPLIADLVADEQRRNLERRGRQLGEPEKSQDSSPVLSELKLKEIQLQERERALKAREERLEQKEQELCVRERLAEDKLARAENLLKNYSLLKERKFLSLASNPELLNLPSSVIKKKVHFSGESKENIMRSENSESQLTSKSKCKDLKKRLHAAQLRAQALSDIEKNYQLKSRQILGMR
From the text: as §1

IKKe = target: T3, IKKe (Homo sapiens, UniProt Q14164); assay: Kinase profiling IKKe; settings: 100 micromolar inhibitor concentration, 100 is no change; for remaining activity at 100 µM: read-out: residual kinase activity, IKKe
T3 sequence (Q14164 1-716): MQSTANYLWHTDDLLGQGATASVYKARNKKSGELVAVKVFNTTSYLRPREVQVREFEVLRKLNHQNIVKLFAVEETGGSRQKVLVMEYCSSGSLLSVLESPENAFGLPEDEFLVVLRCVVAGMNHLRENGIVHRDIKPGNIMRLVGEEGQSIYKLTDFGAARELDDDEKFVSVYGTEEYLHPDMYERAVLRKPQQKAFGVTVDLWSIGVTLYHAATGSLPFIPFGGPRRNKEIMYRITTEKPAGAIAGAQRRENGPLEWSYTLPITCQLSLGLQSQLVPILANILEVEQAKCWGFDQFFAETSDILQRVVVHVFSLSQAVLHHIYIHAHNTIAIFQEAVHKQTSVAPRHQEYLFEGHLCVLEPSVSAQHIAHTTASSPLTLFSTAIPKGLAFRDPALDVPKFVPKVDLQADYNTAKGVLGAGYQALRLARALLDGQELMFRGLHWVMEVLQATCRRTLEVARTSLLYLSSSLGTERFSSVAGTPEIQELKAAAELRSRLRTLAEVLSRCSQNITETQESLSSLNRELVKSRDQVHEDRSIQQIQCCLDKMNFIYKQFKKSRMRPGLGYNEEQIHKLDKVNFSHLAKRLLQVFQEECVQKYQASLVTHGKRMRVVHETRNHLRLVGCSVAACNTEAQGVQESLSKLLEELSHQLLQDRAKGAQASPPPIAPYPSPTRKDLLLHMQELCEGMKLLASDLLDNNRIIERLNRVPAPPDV
From the text: as §1

MST3 = MST3 (Homo sapiens, UniProt Q9Y6E0); assay: Kinase profiling MST3; settings: 100 micromolar inhibitor concentration, 100 is no change; for remaining activity at 100 µM: read-out: residual kinase activity, MST3
Chain of MST3 (Q9Y6E0 whole entry, species assumed): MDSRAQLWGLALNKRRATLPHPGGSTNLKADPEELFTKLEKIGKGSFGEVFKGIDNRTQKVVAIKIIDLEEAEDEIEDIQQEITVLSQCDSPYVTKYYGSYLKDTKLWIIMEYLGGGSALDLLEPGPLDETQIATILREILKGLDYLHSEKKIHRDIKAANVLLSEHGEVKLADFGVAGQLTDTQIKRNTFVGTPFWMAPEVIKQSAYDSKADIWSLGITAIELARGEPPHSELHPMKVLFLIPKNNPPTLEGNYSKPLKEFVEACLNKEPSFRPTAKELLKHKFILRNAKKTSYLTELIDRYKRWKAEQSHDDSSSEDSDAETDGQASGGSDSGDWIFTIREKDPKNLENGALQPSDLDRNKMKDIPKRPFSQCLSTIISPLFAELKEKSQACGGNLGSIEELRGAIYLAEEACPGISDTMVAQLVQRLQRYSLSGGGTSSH
From the text: as §1

GCK = target: T4, GCK (Homo sapiens, UniProt Q12851); assay: Kinase profiling GCK; settings: 100 micromolar inhibitor concentration, 100 is no change; for remaining activity at 100 µM: read-out: residual kinase activity, GCK
T4 sequence (Q12851 1-820): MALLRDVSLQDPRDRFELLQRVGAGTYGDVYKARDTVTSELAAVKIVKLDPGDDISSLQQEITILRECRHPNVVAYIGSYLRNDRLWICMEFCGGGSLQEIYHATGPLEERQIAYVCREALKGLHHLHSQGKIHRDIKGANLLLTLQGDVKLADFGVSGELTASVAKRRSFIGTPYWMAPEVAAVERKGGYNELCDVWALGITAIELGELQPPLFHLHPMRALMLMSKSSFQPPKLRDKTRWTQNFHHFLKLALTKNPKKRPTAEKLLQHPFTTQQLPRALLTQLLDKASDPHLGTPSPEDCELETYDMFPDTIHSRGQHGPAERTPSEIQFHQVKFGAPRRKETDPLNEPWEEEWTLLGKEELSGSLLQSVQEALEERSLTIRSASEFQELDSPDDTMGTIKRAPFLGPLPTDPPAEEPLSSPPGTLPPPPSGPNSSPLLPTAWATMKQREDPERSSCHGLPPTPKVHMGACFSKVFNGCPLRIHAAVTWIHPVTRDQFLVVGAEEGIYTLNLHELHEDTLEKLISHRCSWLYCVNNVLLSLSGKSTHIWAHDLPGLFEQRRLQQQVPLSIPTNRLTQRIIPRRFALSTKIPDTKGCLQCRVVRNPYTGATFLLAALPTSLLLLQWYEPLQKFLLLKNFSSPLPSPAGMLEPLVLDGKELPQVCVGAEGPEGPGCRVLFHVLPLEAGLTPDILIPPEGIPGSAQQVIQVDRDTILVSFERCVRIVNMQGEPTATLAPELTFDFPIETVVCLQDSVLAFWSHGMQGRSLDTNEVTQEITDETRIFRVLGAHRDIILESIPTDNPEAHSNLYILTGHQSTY
From the text: as §1

ABL = ABL (Homo sapiens, UniProt P00519); assay: Kinase profiling ABL; settings: 100 micromolar inhibitor concentration, 100 is no change; for remaining activity at 100 µM: read-out: residual kinase activity, ABL
Chain of ABL (P00519 whole entry, species assumed): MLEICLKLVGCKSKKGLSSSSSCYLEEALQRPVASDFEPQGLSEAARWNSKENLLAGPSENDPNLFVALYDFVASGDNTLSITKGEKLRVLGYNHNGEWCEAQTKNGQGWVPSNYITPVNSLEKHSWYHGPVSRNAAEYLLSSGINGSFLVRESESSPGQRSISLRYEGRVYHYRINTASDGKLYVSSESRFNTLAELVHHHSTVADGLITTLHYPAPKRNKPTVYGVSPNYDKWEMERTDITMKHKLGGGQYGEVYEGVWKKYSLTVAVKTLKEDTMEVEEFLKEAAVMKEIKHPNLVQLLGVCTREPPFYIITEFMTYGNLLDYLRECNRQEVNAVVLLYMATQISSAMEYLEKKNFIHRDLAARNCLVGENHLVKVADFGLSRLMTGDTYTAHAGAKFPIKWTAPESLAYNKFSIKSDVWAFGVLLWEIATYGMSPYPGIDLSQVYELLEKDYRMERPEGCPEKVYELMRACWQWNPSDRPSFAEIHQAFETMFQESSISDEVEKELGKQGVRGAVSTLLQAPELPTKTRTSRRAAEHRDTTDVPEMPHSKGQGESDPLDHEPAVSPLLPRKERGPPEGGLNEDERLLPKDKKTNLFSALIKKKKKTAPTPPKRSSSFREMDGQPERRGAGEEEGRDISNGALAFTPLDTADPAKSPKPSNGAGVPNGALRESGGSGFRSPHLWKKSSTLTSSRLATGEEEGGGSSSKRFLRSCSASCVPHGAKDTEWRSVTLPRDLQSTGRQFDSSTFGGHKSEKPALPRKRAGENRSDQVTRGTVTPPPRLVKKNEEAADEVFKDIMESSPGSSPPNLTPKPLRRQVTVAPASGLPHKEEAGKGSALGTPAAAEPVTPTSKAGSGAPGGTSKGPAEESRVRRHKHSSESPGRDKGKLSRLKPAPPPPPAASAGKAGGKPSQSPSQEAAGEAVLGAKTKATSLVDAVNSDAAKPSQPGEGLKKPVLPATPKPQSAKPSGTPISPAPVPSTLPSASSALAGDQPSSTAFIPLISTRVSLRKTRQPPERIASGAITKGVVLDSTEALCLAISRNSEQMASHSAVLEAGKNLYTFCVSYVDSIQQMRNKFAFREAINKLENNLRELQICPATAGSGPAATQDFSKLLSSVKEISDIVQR
From the text: as §1

EPH-A4 = EPH-A4 (Homo sapiens, UniProt P54764); assay: Kinase profiling EPH-A4; settings: 100 micromolar inhibitor concentration, 100 is no change; for remaining activity at 100 µM: read-out: residual kinase activity, EPH-A4
Chain of EPH-A4 (P54764 20-986, species assumed): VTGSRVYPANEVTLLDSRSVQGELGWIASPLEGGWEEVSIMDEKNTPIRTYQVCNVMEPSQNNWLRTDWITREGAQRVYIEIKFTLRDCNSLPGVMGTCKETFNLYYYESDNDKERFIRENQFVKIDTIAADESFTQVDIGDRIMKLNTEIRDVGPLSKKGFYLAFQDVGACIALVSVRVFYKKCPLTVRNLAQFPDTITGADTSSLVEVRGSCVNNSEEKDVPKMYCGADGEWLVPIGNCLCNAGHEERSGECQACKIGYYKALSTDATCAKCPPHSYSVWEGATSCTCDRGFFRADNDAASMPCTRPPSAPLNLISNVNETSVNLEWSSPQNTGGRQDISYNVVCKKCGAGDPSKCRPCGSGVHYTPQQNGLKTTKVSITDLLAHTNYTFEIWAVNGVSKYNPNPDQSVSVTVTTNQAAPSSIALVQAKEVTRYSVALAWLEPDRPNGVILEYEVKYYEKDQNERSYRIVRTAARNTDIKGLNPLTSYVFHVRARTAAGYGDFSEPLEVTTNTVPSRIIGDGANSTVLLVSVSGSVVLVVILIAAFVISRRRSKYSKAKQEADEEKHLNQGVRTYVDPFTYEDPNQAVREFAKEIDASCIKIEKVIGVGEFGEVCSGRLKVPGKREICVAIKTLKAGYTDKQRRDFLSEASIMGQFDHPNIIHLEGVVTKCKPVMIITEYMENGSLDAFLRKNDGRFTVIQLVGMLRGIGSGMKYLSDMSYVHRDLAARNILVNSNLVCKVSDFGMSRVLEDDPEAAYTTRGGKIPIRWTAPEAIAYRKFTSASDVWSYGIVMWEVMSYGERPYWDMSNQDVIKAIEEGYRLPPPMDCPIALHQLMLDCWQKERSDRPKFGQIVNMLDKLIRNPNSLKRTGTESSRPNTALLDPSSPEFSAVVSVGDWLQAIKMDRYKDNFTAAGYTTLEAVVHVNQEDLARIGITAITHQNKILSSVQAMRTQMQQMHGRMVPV
From the text: as §1

O=C(Nc1nc2ccc(O)cc2s1)c1ccccc1 [Compound 03-60]
residual kinase activity, AMPK (AMPK): 30
residual kinase activity, MARK4 (MARK4): 67
residual kinase activity, NEK2a (NEK2a): 64
residual kinase activity, IKKe (IKKe): 27
residual kinase activity, MST3 (MST3): 54
residual kinase activity, GCK (GCK): 4
residual kinase activity, ABL (ABL): 54
residual kinase activity, EPH-A4 (EPH-A4): 87

CC(=O)Nc1nc2cc(C(F)(F)F)ccc2s1 [Compound 03-73]
residual kinase activity, AMPK (AMPK): 75
remaining activity at 100 µM (MARK4): 97%
remaining activity at 100 µM (NEK2a): 94%
remaining activity at 100 µM (IKKe): 93%
remaining activity at 100 µM (MST3): 89%
remaining activity at 100 µM (GCK): 36%
remaining activity at 100 µM (ABL): 109%
remaining activity at 100 µM (EPH-A4): 103%

CC(=O)Nc1nc2cc(C)ccc2s1 [Compound 03-76]
residual kinase activity, AMPK (AMPK): 77
residual kinase activity, MARK4 (MARK4): 80
residual kinase activity, NEK2a (NEK2a): 95
residual kinase activity, IKKe (IKKe): 89
residual kinase activity, MST3 (MST3): 85
residual kinase activity, GCK (GCK): 35
residual kinase activity, ABL (ABL): 82
residual kinase activity, EPH-A4 (EPH-A4): 91

CC(=O)Nc1nc2cc(F)ccc2s1 [Compound 03-77]
residual kinase activity, AMPK (AMPK): 73
remaining activity at 100 µM (MARK4): 86%
remaining activity at 100 µM (NEK2a): 90%
remaining activity at 100 µM (IKKe): 91%
remaining activity at 100 µM (MST3): 87%
remaining activity at 100 µM (GCK): 8%
remaining activity at 100 µM (ABL): 86%
remaining activity at 100 µM (EPH-A4): 100%

O=C(Nc1nc2ccc(O)cc2s1)c1ccncc1 [Compound 08-42]
residual kinase activity, AMPK (AMPK): 61
residual kinase activity, MARK4 (MARK4): 82
residual kinase activity, NEK2a (NEK2a): 79
residual kinase activity, IKKe (IKKe): 47
residual kinase activity, MST3 (MST3): 77
residual kinase activity, GCK (GCK): 27
residual kinase activity, ABL (ABL): 76
residual kinase activity, EPH-A4 (EPH-A4): 92

O=C(Nc1nc2ccc(O)cc2s1)c1cccnc1 [Compound 08-44]
residual kinase activity, AMPK (AMPK): 48
residual kinase activity, MARK4 (MARK4): 77
residual kinase activity, NEK2a (NEK2a): 74
residual kinase activity, IKKe (IKKe): 50
residual kinase activity, MST3 (MST3): 76
residual kinase activity, GCK (GCK): 31
residual kinase activity, ABL (ABL): 58
residual kinase activity, EPH-A4 (EPH-A4): 89
